The record followed here is patent publication US20050107394A1, “Novel use of selective pde5 inhibitors” (priority 2001, published 2005).

Where “and” joins values, the source holds several entries; their conditions need not be identical. Equal entries are not always repeated. Entries after “also recorded” stand apart in the source; their conditions may differ.

Experiment [1] concerns patients with ILD (interstitial lung disease) displaying secondary PHT. Description: Shunting by MIGET in patients with ILD. Type of experiment: in vivo, human. To be noted: 7 patients with ILD; for shunting / shunt perfusion (MIGET), level reached: baseline 7.2%, PGI i.v., NO 20 ppm inhaled, sildenafil 50 mg oral. Here is the method:
FIG. 5: Result of determination of the shunting on 7 patients with ILD (interstitial lung disease) displaying secondary PHT. The measurement took place by the inert gas exchange method (MIGET) [Wagner et al. J Appl Physiol. 1974;36:588-99]. The shunting was reduced to 5% and 4.8%, respectively, by NO (inhaled) [20 ppm] and sildenafil (oral) [50 mg]. The shunting was increased to 18% after administration of PGI (prostacyclin, intravenous) […]].
(§1) 7 patients with ILD underwent a Swan-Ganz catheter investigation with measurement of the ventilation/perfusion (V/Q) distribution (using the multiple inert gas elimination technique (MIGET)). After determination of the baseline parameters (haemodynamics and gas exchange), all the patients initially inhaled 20 ppm NO, followed by a second baseline period (10-15 min), and then PGI was infused (6 ng/kg bodyweight/min), again followed by a second baseline period (10-15 min) and then an oral dose of 50 mg of sildenafil was given (120-150 min follow-up). 5 of the 7 patients were controlled by continuous nasal oxygen therapy in order to reach an arterial oxygenation of >88%. The following parameters were measured under baseline conditions: mean pulmonary arterial pressure (mPAP) 39.6+/−2.8 mmHg and pulmonary vascular resistance index (PVRI) 1255+/−215 dyn*s*cm−5*m^2.

Experiment [2] concerns bleomycin-induced pulmonary fibrosis in rabbits. Description: Shunting by MIGET in bleomycin-induced pulmonary fibrosis. Type of experiment: in vivo, rabbit. To be noted: for effect on shunting: NO inhaled, sildenafil oral; for shunting (MIGET), level reached: PGI 6 ng/kg/min systemic, NO 20 ppm inhaled, sildenafil 1 mg/kg oral. The method, then:
FIG. 1: Result of determination of shunting with the aid of the model of bleomycin-induced pulmonary fibrosis in rabbits. The measurements by the inert gas exchange method (MIGET) [Wagner et al., J Appl Physiol. 1974;36:588-99] reveal that the shunting was increased by 15% in this model, compared with the untreated control. Systemically administered PGI [6 ng/kg body weight/min] (PGI, prostacyclin) increased the shunting to about 30%. […] Shunting was reduced to 6% by oral administration of the PDE5 inhibitor sidenafil [1 mg/kg body weight].
Healthy rabbits of both sexes were pretreated orally with a gyrase inhibitor (Baytril®) for one week. Ten animals pretreated in this way were not treated with bleomyin and served as control, and, on the day of exposure, the others were anaesthetized with a Ketanest®/Rompun® mixture, intubated intratracheally and ventilated mechanically. An ultrasonic nebulizer (MMAD 2.5 μm) was used to administer by inhalation exactly 1.8 U/kg of bodyweight of bleomycin under volume-controlled ventilation. After 4, 8, 16, 24, 32 and 64 days (in each case n≧5) post exposure, the animals were again anaesthetized, provided with an arterial access (right carotid artery) and underwent bodyweight-adapted ventilation via a tracheostomy in a volume-controlled method. The arterial pO2 and pCO2, and the static compliance of the lung were measured (by recording the intrathoracic pressure and with slow inflation/deflation manoeuvres). Subsequently, the lungs of these animals were dissected and perfused with a Krebs Hensefeit buffer. Under these conditions, the capillary filtraton coefficient (cfc) was then found from the weight gain of the organ after increasing the pulmonary venous pressure by 7.5 mmHg, and the peak ventilation pressure was found. After completion of these measurements, the left main bronchus was ligated in the end-inspiratory position and a bronchoalveolar lavage (BAL) was performed on the right lung. Subsequently, the large vessels and airways of the right lung were dissected off and the organ was homogenized. The left lung was perfusion-fixed with 4% formalin solution while maintaining a pressure gradient of 25 cm H2O and was then stored in 4% formalin until embedded. Firstly, the cells were removed from the BAL, counted and differentiated via a Papenheim stain. The cell-free BAL supernatant was then aliquoted and submitted to further analysis of the surfactant and coagulation properties and a determination of the matrix metallo proteinases (MMPs) and their inhibitors (TIMPs) and of soluble collagen. Bronchoalveolar deposition of 1.8 U/kg of bodyweight of bleomycin led initially to development of an ARDS-like event, with a massive restriction of gas exchange (paO2/FiO2 of >500 mmHg in the controls reduced to ˜110 mmHg on day 4), ground-glass opacities over all sections of the lung in the HRCT and an increase of about 5-fold in the capillary filtration coefficient (cfc). In the later phase of bleomycin-induced lung damage there was then development of pronounced fibrosis which could be confirmed on the basis of the increase in soluble collagen in the BAL and the hydroxyproline in the tissue, on the basis of the histological specimens and of the HRCT findings. […] Consistent with this, a pronounced increase in the extracellular matrix and an alveolar and also interstitial ingress of fibroblasts was observable in the histological sections. […]

The subject of experiment [3] is patients with chronic thromboembolism and displaying secondary PHT. The experiment is described as follows: Low V/Q perfusion by MIGET in patients with chronic thromboembolism. Type of experiment: in vivo, human. To be noted: for effect on low-V/Q perfusion / ventilation/perfusion distribution (words): 7 patients with CTEPH; for low V/Q perfusion (MIGET), level reached: 7 patients, control 3.25%, PGI i.v. 6 ng/kg/min, NO 20 ppm inhaled, sildenafil 50 mg oral. Here is the method: FIG. 3: Result of determination of the low V/Q perfusion measured by the inert gas exchange method (MIGET) [Wagner et al. J Appl Physiol. 1974;36:588-99] from 7 patients with chronic thromboembolism and displaying secondary PHT (pulmonary hypertension). Compared with the control group (3.25%), the shunting was increased with PGI (i.v.) [6 ng/kg bodyweight/min] to 19%, with NO (inhaled) [20 ppm] to 5.3% and with sildenafil (oral) [50 mg] to 5.3%.
as §1, with “with CTEPH” for “with ILD”, “follow-up). 3” for “follow-up). 5”, “(mPAP) 52.1 +/−3.3 mmHg, cardiac index (CI) 2.2+/−0.1 |* min^−1*m^−2,” for “(mPAP) 39.6+/−2.8 mmHg and”, “(PVRI) 1703.8+/−129.5 […], arterial pO2 72.5+/−3.3 mmHg and mixed venous oxygen saturation (SvO2) of 63.4+/−2.2%.” for “(PVRI) 1255+/−215 dyn*s*cm−5*m^2.”

The test system of experiment [4] is patients with ILD displaying secondary PHT. Description: Pulmonary vascular resistance in patients with ILD. Type of experiment: in vivo, human. Conditions: 7 patients with ILD. Here is the method: as §1
By contrast, PGI (intravenous) increased the lung areas from 7% to almost 20% and thus caused a deterioration in matching (FIG. 5). Corresponding to the matching, PGI reduced the O2 saturation by 12%, whereas NO brought about an improvement of 5% and sildenafil one of 15% (FIG. 6).

For `CCCc1nn(C)c2c(=O)[nH]c(-c3cc(S(=O)(=O)N4CCN(C)CC4)ccc3OCC)nc12` [sildenafil, 5-[2-ethoxy-5-(4-methyl-1-piperazinyl-sulphonyl)phenyl]-1-methyl-3-n-propyl-1,6-dihydro-7H-pyrazolo[4,3-d]pyrimidin-7-one], in experiment [1], the “effect on shunting / ventilation/perfusion distribution” value was “virtually unchanged; also recorded: no effect” and the “shunting / shunt perfusion (MIGET), level reached” value (“shunting / shunt perfusion (MIGET)” below) was determined as 4.8%. Moreover, in experiment [2], the “effect on shunting” value is “reduced the shunting even more than NO” and the “shunting (MIGET), level reached” value came out at 6%. Also, in experiment [3], the “effect on low-V/Q perfusion / ventilation/perfusion distribution (words)” value is “virtually unchanged” and the “low V/Q perfusion (MIGET), level reached” value is 5.3%. Further, in experiment [3] (listed as Sildenafil), the “effect on low-V/Q perfusion / ventilation/perfusion distribution (words)” value was “same effect as NO (inhaled)”. Further, in experiment [4], the “effect on pulmonary vascular resistance” value was “marked reduction” and the “pulmonary vascular resistance (PVR), reduction” value is “about 25%”.

Consider `CCCCC[C@H](O)/C=C/[C@@H]1[C@H]2C/C(=C/CCCC(=O)O)O[C@H]2C[C@H]1O` [PGI, prostacyclin], for which, in experiment [1], the “shunting / shunt perfusion (MIGET)” value was 18% and ~20%. In experiment [2], the “shunting (MIGET), level reached” value is reported as “about 30%”. In experiment [3], the “effect on low-V/Q perfusion / ventilation/perfusion distribution (words)” value is listed as “greatly increased” and the “low V/Q perfusion (MIGET), level reached” value was 19%. Also, in experiment [4], the “effect on pulmonary vascular resistance” value is “marked reduction” and the “pulmonary vascular resistance (PVR), reduction” value was “about 25%”.

In the case of `[N]=O` [NO, nitric oxide], in experiment [1], the “effect on shunting / ventilation/perfusion distribution” value is listed as “virtually unchanged; also recorded: no effect” and the “shunting / shunt perfusion (MIGET)” value came out at 5%. In addition, in experiment [2], the “effect on shunting” value is given as “reduced the shunting” and the “shunting (MIGET), level reached” value turned out to be 9%. Besides, in experiment [3], the “effect on low-V/Q perfusion / ventilation/perfusion distribution (words)” value was “virtually unchanged; also recorded: increased slightly” and the “low V/Q perfusion (MIGET), level reached” value is on record as 5.3%. Also, in experiment [4], the “effect on pulmonary vascular resistance” value is “marked reduction” and the “pulmonary vascular resistance (PVR), reduction” value was “about 25%”.
